# Measurements from ChEMBL document CHEMBL1201862, “PubChem BioAssay data set” (2004).
# Active and inactive are the calls of the source.
# Key:
# [1] = target: T1, Corticotropin-releasing factor receptor 2/Corticotropin-releasing factor-binding protein (Homo sapiens, UniProt P24387+Q13324); assay: Dose Response confirmation of uHTS hits for small molecule antagonists of the CRF-binding protein and CRF-R2 receptor complex.; type: functional; details: read-out: IC50_Mean
# T1 sequence (Q13324 whole entry): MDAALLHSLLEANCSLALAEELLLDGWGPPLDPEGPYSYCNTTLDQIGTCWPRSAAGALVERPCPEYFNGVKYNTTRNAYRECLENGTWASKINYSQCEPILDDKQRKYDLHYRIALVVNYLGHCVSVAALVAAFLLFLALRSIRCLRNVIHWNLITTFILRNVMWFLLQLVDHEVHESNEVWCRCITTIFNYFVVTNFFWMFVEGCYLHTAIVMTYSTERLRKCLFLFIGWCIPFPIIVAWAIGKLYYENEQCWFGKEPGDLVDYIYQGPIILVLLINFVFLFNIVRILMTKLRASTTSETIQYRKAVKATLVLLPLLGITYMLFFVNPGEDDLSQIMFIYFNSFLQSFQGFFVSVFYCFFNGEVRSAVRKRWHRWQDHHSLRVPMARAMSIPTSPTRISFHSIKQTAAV
# T1 sequence (P24387 whole entry): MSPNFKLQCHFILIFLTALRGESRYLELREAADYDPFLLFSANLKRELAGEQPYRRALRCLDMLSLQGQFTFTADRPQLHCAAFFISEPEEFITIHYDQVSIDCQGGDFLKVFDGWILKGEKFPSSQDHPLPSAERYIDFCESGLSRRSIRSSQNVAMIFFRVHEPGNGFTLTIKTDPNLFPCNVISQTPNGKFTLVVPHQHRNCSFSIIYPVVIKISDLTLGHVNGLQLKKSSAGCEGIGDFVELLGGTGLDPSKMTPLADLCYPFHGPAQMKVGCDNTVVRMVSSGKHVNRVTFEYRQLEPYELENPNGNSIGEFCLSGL
# [2] = target: T1, Corticotropin-releasing factor receptor 2/Corticotropin-releasing factor-binding protein; assay: activators of CRF receptor 2 with binding protein – uHTS hits, confirmation (AID 602473); type: functional; details: read-out: EC50_Mean
# [3] = target: T2, Heat shock factor protein 1 (Mus musculus, UniProt P38532); assay: enhancement of HSF1-driven luciferase signal – cell-based, NIH3T3, luminescence, dose retest, confirmation (AID 435004); type: functional;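 also: stress induced by proteasome inhibitor MG132 added 30 min after compound; luciferase reporter driven by HSF1 response element in NIH3T3 cells; actives raise luminescence as potentiators of the MG132 stress response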
# T2 sequence (P38532 whole entry): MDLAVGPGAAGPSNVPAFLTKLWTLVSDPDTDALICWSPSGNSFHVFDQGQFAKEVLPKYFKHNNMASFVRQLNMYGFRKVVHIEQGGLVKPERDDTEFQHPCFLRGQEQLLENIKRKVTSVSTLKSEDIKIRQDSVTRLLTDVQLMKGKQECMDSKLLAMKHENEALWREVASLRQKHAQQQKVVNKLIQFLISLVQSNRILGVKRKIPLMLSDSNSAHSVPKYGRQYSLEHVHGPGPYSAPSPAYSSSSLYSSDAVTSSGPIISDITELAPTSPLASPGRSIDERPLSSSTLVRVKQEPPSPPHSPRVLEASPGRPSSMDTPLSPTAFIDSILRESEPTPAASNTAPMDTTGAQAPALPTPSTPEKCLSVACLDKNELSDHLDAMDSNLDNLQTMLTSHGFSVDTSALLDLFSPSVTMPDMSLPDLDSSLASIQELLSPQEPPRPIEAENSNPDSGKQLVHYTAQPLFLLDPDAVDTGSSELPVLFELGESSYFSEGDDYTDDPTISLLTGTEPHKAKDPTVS
# Cytochrome P450 2C19 = Cytochrome P450 2C19 (Homo sapiens, UniProt P33261); assay: Cytochrome panel assay with activity outcomes. Panel member name: p450-cyp2c19 Compounds with AC50 equal or less than 10 uM are considered active; type: functional; details: read-out: AC50
# Cytochrome P450 2C9 = Cytochrome P450 2C9 (Homo sapiens, UniProt P11712)
# [4] = target: T2, Heat shock factor protein 1; assay: decrease of HSF1-responsive luciferase luminescence – cell-based, NIH3T3, dose retest, confirmation (AID 2382); type: functional;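 also: NIH3T3 fibroblasts with HSF1-driven luciferase reporter stressed by proteasome inhibitor MG132; luminescence from HSF1-driven luciferase expression after 8 hours of MG132 stress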
# Cytochrome P450 3A4 = Cytochrome P450 3A4 (Homo sapiens, UniProt P08684);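 also: CYP3A4 tested as one member of a cytochrome P450 panel screen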
# [5] = Luminescence Cell-Based Dose Confirmation HTS to Identify Activators of 5'UTR Stem-Loop Driven Alpha-Synuclein mRNA Translation in H4 Neuroglioblastoma Cells. [Related pubchem assays: 1829 (Project Summary), 1814 (Primary HTS)]; type: functional
# [6] = Luminescence Cell-Based Dose Response HTS to Identify Activators of Luciferase Translation or Activity in H4 […] Cells. [Related pubchem assays: 1829 (Project Summary), 1814 (Primary HTS)]; type: functional
# H4 = assay: Luminescence Cell-Based Dose Response HTS to Identify Activators of 5'UTR Stem-Loop Driven Prion Protein mRNA Translation in H4 Neuroglioblastoma Cells. [Related pubchem assays: 1829 (Project Summary), 1814 (Primary HTS)]; type: functional; details: Homo sapiens
# [7] = target: T3, Rac GTPase-activating protein 1 (Homo sapiens, UniProt Q9H0H5); assay: blockers of MgcRacGAP-driven Rac1 GTP hydrolysis – biochemical, ADP Hunter fluorescence, primary and confirmatory, confirmation (AID 624330); type: functional
# T3 sequence (Q9H0H5 whole entry): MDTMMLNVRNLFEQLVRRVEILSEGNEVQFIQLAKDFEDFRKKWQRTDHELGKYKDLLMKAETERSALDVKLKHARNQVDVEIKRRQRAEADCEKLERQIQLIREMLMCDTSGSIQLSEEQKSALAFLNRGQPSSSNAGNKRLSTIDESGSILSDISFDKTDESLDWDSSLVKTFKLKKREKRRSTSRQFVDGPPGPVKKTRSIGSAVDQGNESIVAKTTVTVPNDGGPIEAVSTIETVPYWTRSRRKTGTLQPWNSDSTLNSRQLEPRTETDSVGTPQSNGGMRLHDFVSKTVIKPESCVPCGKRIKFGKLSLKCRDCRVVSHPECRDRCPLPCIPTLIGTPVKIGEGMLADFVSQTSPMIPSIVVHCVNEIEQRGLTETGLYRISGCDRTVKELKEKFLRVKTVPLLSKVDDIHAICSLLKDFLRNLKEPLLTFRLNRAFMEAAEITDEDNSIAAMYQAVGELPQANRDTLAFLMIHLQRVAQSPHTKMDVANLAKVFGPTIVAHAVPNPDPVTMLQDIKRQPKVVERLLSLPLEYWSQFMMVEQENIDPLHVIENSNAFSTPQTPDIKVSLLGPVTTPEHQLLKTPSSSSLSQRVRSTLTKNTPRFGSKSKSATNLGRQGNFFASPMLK
# Cytochrome P450 1A2 = target: T4, Cytochrome P450 1A2 (Homo sapiens, UniProt P05177);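 also: PubChem cytochrome P450 panel assay, CYP1A2 panel member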
# T4 sequence (P05177 whole entry): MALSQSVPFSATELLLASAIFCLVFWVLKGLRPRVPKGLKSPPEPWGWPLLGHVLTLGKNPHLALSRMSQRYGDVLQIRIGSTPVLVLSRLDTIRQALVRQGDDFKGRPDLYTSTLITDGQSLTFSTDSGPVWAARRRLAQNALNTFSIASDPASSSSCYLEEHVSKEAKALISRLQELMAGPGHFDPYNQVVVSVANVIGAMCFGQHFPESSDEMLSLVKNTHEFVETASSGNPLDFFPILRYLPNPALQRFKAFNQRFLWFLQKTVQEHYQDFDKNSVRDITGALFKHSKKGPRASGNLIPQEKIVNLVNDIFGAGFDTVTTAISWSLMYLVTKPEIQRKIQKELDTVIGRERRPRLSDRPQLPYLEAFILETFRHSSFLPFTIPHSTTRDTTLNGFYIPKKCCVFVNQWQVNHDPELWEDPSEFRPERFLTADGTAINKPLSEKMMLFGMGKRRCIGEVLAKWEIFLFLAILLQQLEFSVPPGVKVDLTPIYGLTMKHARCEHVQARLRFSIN
# Chain of Cytochrome P450 2C9 (P11712 whole entry): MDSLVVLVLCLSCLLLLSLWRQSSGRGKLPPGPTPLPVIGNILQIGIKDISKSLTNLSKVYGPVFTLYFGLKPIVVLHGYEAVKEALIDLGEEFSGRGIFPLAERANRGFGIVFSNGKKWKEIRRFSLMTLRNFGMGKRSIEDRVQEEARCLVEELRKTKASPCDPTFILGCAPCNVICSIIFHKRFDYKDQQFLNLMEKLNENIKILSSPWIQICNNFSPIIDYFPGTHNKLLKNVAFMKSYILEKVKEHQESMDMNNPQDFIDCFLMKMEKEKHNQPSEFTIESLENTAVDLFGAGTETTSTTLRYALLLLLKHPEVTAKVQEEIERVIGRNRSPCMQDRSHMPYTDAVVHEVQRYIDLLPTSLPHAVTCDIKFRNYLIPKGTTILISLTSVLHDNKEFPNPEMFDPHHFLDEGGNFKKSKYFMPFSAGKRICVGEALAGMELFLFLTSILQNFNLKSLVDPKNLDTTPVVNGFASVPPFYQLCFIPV
# Chain of Cytochrome P450 3A4 (P08684 whole entry): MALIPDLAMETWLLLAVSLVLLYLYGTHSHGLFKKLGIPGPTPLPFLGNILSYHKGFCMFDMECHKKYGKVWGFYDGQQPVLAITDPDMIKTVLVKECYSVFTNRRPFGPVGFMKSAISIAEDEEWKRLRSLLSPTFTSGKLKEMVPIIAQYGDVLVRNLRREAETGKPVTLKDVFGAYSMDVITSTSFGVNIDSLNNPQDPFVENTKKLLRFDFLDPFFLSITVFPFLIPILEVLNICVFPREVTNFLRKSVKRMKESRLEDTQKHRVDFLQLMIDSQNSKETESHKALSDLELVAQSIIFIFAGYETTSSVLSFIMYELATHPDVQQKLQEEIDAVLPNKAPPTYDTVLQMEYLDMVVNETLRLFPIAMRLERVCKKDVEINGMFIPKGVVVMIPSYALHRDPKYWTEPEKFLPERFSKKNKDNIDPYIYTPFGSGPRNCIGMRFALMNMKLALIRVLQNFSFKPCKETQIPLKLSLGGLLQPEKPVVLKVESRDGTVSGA
# Chain of Cytochrome P450 2C19 (P33261 whole entry): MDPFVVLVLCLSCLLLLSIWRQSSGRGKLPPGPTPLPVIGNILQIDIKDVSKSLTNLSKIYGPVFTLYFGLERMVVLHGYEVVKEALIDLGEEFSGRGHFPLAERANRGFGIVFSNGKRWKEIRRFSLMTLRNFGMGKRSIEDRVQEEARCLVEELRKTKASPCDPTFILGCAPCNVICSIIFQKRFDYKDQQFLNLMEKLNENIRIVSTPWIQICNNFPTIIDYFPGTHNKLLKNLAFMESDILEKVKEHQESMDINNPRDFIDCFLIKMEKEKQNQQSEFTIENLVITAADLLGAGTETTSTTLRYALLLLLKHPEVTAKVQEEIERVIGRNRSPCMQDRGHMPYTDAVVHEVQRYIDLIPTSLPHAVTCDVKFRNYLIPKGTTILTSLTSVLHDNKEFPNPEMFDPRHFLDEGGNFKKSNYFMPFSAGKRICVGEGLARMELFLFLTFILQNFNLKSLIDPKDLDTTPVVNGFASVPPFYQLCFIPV
structure (smiles),measurement,setting,value
O=C(COc1ccccc1)NCc1ccco1,IC50,[1],> 47.1 µM (inactive)
same,EC50,[2],> 53 µM (inactive)
C/C=C/c1c(F)c(F)c(Oc2ccc(C(=O)O)cc2)c(F)c1F,EC50,[3],> 260 µM (inactive)
Cc1noc(C)c1COC(=O)c1cccc(S(=O)(=O)N2c3ccccc3CC2C)c1 (stereo not drawn),IC50,[1],> 47.1 µM (inactive)
same,EC50,[2],> 53 µM (inactive)
COC(=O)[C@@]1(Cc2ccc(OC)cc2)[C@H]2c3cc(C(=O)N(C)C)n(CCSCCO)c3C[C@H]2CN1C(=O)c1ccccc1,AC50,Cytochrome P450 2C19,20 µM (inconclusive)
same,AC50,Cytochrome P450 2C9,12.6 µM (inconclusive)
Cc1ccc(=O)n(C(C(=O)NCc2ccco2)C(=O)c2ccc(F)cc2)c1 (stereo not drawn),EC50,[3],> 260 µM (inactive)
Cc1cc(/C=C(/C#N)C(=O)O)c(C)n1-c1cccc2ccccc12,IC50,[1],6.86 µM (active)
same,EC50,[2],> 53 µM (inactive)
C=CCN=C(S)Nc1ccc2nc(C)c(C)nc2c1,AC50,Cytochrome P450 2C9,12.6 µM (inconclusive)
Cc1ccc(F)c(NC(=O)c2ccc(Cn3cc(Cl)cn3)cc2)c1,EC50,[4],> 195 µM (not active)
COc1ccc(NC(=O)C2c3cc(OC)c(OC)cc3C(=O)N(C)C2c2cccnc2)cc1OC (stereo not drawn),AC50,Cytochrome P450 2C9,17.8 µM (inconclusive)
COC(=O)C1=CN(Cc2ccc(OC)c(OC)c2)C=C(C(=O)OC)C1c1ccccc1F,EC50,[4],> 195 µM (not active)
COc1ccc(CCn2c3c(c(=O)[nH]c2=O)C(NC(=O)c2cccs2)(C(F)(F)F)C(=O)N3)cc1OC (stereo not drawn),AC50,Cytochrome P450 3A4,14.1 µM (inconclusive)
same,AC50,Cytochrome P450 2C9,8.91 µM (inconclusive)
COc1ccc(-c2cn(-c3ccccc3)nc2CO)cc1,EC50,[4],> 195 µM (not active)
COC(=O)c1ccc(N2CCN(C(C)=O)CC2)c(NC(=O)COc2ccccc2C)c1,EC50,[4],> 195 µM (not active)
CC(C)N1C(=O)CN(C2CCCCCC2)C(=O)C1c1ccccc1F (stereo not drawn),EC50,[5],10.8 µM (active)
same,EC50,[6],20.9 µM (active)
same,EC50,H4,21 µM (active)
same,EC50,[4],77.6 µM (active)
CCN(C(=O)Cn1c([N+](=O)[O-])cnc1C)c1ccccc1,EC50,[4],> 195 µM (not active)
O=C(CN1CCCCC1)Nc1cccc2c1OCO2,EC50,[4],> 195 µM (not active)
CCOC(=O)CNC(=O)CSc1nnc(C)c(O)n1,EC50,[4],> 195 µM (not active)
CC(C)c1ccccc1-n1c(S)nnc1-c1cccnc1,EC50,[4],> 195 µM (not active)
CN(C)c1ccc(C2Nc3ccccc3C(=O)N2CCCN2CCOCC2)cc1 (stereo not drawn),EC50,[4],2.02 µM (active)
CCOc1ccccc1NC(=O)C1=C(C)NC(=O)NC1c1cccc(OC)c1OC (stereo not drawn),AC50,Cytochrome P450 2C9,25.1 µM (inconclusive)
Cc1ccc(OCC(=O)NC(=S)Nc2ccccn2)c(Br)c1,EC50,[4],< 0.16 µM (active)
CC1C(=O)C(C)C(c2ccco2)NC1c1ccco1 (stereo not drawn),EC50,[4],> 195 µM (not active)
CC(C)(C)CC(C)(C)c1cc(O)c(O)c(CN2CCCCC2)c1,AC50,Cytochrome P450 3A4,3.98 µM (inconclusive)
same,AC50,Cytochrome P450 2C9,7.94 µM (inconclusive)
CCOc1ccc(-n2cc(C(=O)NCc3ccco3)c3cc(OC)c(OC)cc3c2=O)cc1,AC50,Cytochrome P450 3A4,22.4 µM (inconclusive)
same,AC50,Cytochrome P450 2C9,4.47 µM (inconclusive)
CCC[C@@H]1C[C@@]1(CCC)C(NC(=O)OCc1ccccc1)c1ccc(-c2ccccc2)cc1 (stereo partly drawn),AC50,Cytochrome P450 3A4,3.98 µM (inconclusive)
same,AC50,Cytochrome P450 2C9,3.98 µM (inconclusive)
COc1ccc(N(CC(=O)NCCSc2ccccn2)S(=O)(=O)c2ccc(C)cc2)cc1OC,IC50,[1],> 47.1 µM (inactive)
same,EC50,[2],> 53 µM (inactive)
C=CCSc1nc2ccccc2c(=O)n1Cc1ccco1,AC50,Cytochrome P450 2C9,3.98 µM (inconclusive)
COc1ccc(C(=O)NCCS(=O)(=O)N(C)C2CCCCC2)cc1,IC50,[1],> 47.1 µM (inactive)
same,EC50,[2],> 53 µM (inactive)
COCC(=O)N(C)[C@H]1C[C@H]2c3cc(N4CCN(C)CC4)ccc3CCN2C(=O)[C@H]1[C@H](C)O,IC50,[1],> 47.1 µM (inactive)
same,EC50,[2],> 53 µM (inactive)
Fc1ccc(CNCc2ccccc2Cl)cc1,EC50,[4],> 195 µM (not active)
same,IC50,[7],213 µM (active)
COC(=O)c1ccc(NC(=O)c2ccccc2)o1,AC50,Cytochrome P450 1A2,2.82 µM (inconclusive)
same,AC50,Cytochrome P450 2C9,17.8 µM (inconclusive)
COc1ccc(N2CCN(CCCNC(=O)C(=O)c3c(C)[nH]c4ccccc34)CC2)cc1,IC50,[1],> 47.1 µM (inactive)
same,EC50,[2],> 53 µM (inactive)
O=C(CSc1ccc(-c2ccncc2)nn1)N1CCN(c2ccccc2)CC1,IC50,[1],> 47.1 µM (inactive)
same,EC50,[2],> 53 µM (inactive)
O=C(OCc1ccc2c(c1)OCO2)c1ccc(S(=O)(=O)N2CCCC2)cc1,IC50,[1],> 47.1 µM (inactive)
same,EC50,[2],> 53 µM (inactive)
COc1ccc(N2CCN(CC(O)COCCOc3ccc(Br)cc3)CC2)cc1 (stereo not drawn),EC50,[4],> 195 µM (not active)
Cc1cccc(C)c1NC(=O)c1sccc1SCc1cccc(C(F)(F)F)c1,IC50,[1],> 47.1 µM (inactive)
same,EC50,[2],> 53 µM (inactive)
COc1ccc(Nc2cc(C(=O)NCCCN3CCN(C)CC3)c3ccccc3n2)cc1,AC50,Cytochrome P450 1A2,10 µM (inconclusive)
same,AC50,Cytochrome P450 2C9,14.1 µM (inconclusive)
CCCCN(CC)S(=O)(=O)N1CCC(C(=O)NCCCN2CCOCC2)CC1,AC50,Cytochrome P450 2C19,1 µM (inconclusive)
same,AC50,Cytochrome P450 2C9,25.1 µM (inconclusive)
O=C(Nc1ccccc1C(=O)N1CCOCC1)c1ccncc1,IC50,[1],> 47.1 µM (inactive)
same,EC50,[2],> 53 µM (inactive)
Cc1nc2cnc(N3CCOCC3)nc2n(Cc2ccc(F)cc2)c1=O,AC50,Cytochrome P450 2C9,31.6 µM (inconclusive)
